Drawing on patent publication US6800648B2, “Antipsychotic aminomethyl derivatives of 7,8-dihydro-3H-1,6,9-trioxa-3-AZA-cyclopenta[a]naphthalen-2-one” (Wyeth, priority 2001, dated 2004), this text covers ED50, IC50 and melting point for eight molecules.

The term ED50 denotes the dose that gives a 50% effect, or the effect in half of the subjects. A high value points to weaker potency. Usually IC50 stands for the concentration needed to halve the response being measured. As usually defined, the melting point is the temperature, or range, at which the solid turns liquid.

Where a name gives a salt, the structure may show the parent alone. Where only a bound is given, the exact number is not on record here.

The test system of one data set is mouse locomotor activity. Nature of the data set: Reduction of mouse locomotor activity (functional antagonism of dopamine receptors in vivo). As to conditions: mice (male, CF-1), sc, horizontal activity counts 10 to 20 minutes after dosing. As to the method:
The antipsychotic activity of the compounds of the invention was established by a determination of functional antagonism of dopamine receptors in vivo, specifically the compounds' ability to reduce mouse locomotor activity according to the method of Martin and Bendensky, J. Pharmacol. Exp. Therap. 229: 706-711, 1984, in which mice (male, CF-1, Charles River, 20-30 g) were injected with vehicle or various doses of each drug and locomotor activity was measured for 30 minutes using automated infrared activity monitors (Omnitech—8×8 inch open field) located in a darkened room. ED50's were calculated from the horizontal activity counts collected from 10 to 20 minutes after dosing using a nonlinear regression analysis with inverse prediction.

A further data set has as its target T1, dopamine D2 receptor (Rattus norvegicus, UniProt P61169).
T1 construct: from tissue; host or cells: rat striatal brain tissue homogenate
Nature of the data set: Dopamine D2 receptor affinity, 3H-quinpirole binding in homogenized rat striatal brain tissue. As for the experimental part:
Affinity for the dopamine D2 receptor was established by a modification of the standard experimental test procedure of Seemen and Schaus, European Journal of Pharmacology 203: 105-109, 1991, wherein homogenized rat striatal brain tissue is incubated with ^3H-quinpirole and various concentrations of test compound, filtered and washed and counted in a Betaplate scintillation counter.

T1 sequence (P61169 whole entry): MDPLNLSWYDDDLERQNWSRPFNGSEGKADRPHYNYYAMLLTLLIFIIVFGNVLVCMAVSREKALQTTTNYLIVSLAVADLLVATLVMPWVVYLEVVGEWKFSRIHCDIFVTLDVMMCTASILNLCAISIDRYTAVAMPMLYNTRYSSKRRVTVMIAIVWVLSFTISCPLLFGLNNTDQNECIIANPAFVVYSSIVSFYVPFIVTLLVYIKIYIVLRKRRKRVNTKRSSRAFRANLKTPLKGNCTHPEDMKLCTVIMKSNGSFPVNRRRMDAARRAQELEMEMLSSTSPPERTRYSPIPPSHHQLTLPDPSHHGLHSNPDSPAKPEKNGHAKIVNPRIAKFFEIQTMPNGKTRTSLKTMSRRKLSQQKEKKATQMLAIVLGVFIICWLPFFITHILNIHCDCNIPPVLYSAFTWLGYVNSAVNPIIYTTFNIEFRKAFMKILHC

Take `O=c1[nH]c2ccc3c(c2o1)OC(CN(Cc1ccccc1)Cc1ccccc1)CO3` (stereo not shown) [Example 3, 8-[(Dibenzylamino)-methyl]-7,8-dihydro-3H-1,6,9-trioxa-3-aza-cyclopenta[a]naphthalen-2-one]: the melting point amounted to 210 °C. In the data set with mouse locomotor activity, this molecule registered an ED50 of at least 50 mg/kg. Besides, at dopamine D2 receptor, the concentration for half-maximal inhibition (IC50) came to 475 nM.

On to `O=c1[nH]c2ccc3c(c2o1)OC(CNCCCCc1ccccc1)CO3` (stereo not shown) [Example 4, 8-[(4-Phenyl-butylamino)-methyl]-7,8-dihydro-3H-1,6,9-trioxa-3-aza-cyclopenta[a]naphthalen-2-one], for which the half-inhibitory concentration (IC50) on dopamine D2 receptor is 2 nM.

For `O=c1[nH]c2ccc3c(c2o1)OC(CN1CC=C(c2c[nH]c4ccccc24)CC1)CO3` (stereo not shown), the melting point was 202 °C.

On dopamine D2 receptor, `O=c1[nH]c2ccc3c(c2o1)OC(CNCc1ccccc1)CO3` (stereo not shown) [Example 2, 8-(Benzylamino-methyl)-7,8-dihydro-3H-1,6,9-trioxa-3-aza-cyclopenta[a]naphthalen-2-one] gave an IC50 of 0.16 nM.

With `O=c1[nH]c2ccc3c(c2o1)OC(CNCc1ccccc1)CO3` (stereo not shown) (as salt: fumarate) (hydrate or solvate) [Example 2, 8-(Benzylamino-methyl)-7,8-dihydro-3H-1,6,9-trioxa-3-aza-cyclopenta[a]naphthalen-2-one], the melting point is 220 °C.

For `O=c1[nH]c2ccc3c(c2o1)OC(CNCCCCc1ccccc1)CO3` (stereo not shown) (as salt: fumarate) (hydrate or solvate) [Example 4, 8-[(4-Phenyl-butylamino)-methyl]-7,8-dihydro-3H-1,6,9-trioxa-3-aza-cyclopenta[a]naphthalen-2-one], the melting point lay in the range of 215 to 218 °C.

Consider `NCC1COc2ccc3[nH]c(=O)oc3c2O1` (stereo not shown) [Example 1, 8-Aminomethyl-7,8-dihydro-3H-1,6,9-trioxa-3-aza-cyclopenta[a]naphthalen-2-one], for which the half-maximal inhibitory concentration (IC50) on dopamine D2 receptor was determined as 3.7 nM.

The molecule `NCC1COc2ccc3[nH]c(=O)oc3c2O1` (stereo not shown) (as salt: HCl) [Example 1, 8-Aminomethyl-7,8-dihydro-3H-1,6,9-trioxa-3-aza-cyclopenta[a]naphthalen-2-one] displayed a melting point of over 250 °C.
